According to ChEMBL document CHEMBL3885881, “DrugMatrix”:

Organism: Rattus norvegicus
Experiment: DrugMatrix - Regimen: Daily Repeat
Assay type: toxicity, organism-based, Sprague-Dawley
Parameters: regimen Daily Repeat, gender Male, age 6-8 weeks
Conditions: in vivo, iv, vehicle 100 % SALINE; for ABSOLUTE BASOPHIL / ABSOLUTE EOSINOPHIL / ABSOLUTE LYMPHOCYTE / ABSOLUTE MONOCYTE / ABSOLUTE SEGMENTED NEUTROPHIL / BASOPHIL / EOSINOPHIL / ERYTHROCYTE COUNT / HEMATOCRIT / LEUKOCYTE COUNT / LYMPHOCYTE / MEAN CORPUSCULAR HEMOGLOBIN / MEAN CORPUSCULAR HEMOGLOBIN CONCENTRATION / MONOCYTE / NEUTROPHIL / NUCLEATED RED BLOOD CELLS / PLATELET COUNT / HEMOGLOBIN: tissue Blood
[1] = 6 mg/kg, 72 h, tissue Plasma, dose level Low, time 3 day
[2] = 6 mg/kg, 120 h, dose level Low, time 5 day
[3] = 6 mg/kg, 120 h, tissue Plasma, dose level Low, time 5 day
[4] = 14 mg/kg, 72 h, dose level High, time 3 day
[5] = 14 mg/kg, 72 h, tissue Plasma, dose level High, time 3 day
[6] = 14 mg/kg, 120 h, dose level High, time 5 day
[7] = 14 mg/kg, 120 h, tissue Plasma, dose level High, time 5 day

Sequence: CARBOPLATIN
- TOTAL PROTEIN [1]: 6.3 G/DL
- URIC ACID [1]: 1.1 mg/dL
- ABSOLUTE BASOPHIL [2]: 0 CELLS/uL
- ABSOLUTE EOSINOPHIL [2]: 0 CELLS/uL
- ABSOLUTE LYMPHOCYTE [2]: 10376.67 CELLS/uL
- ABSOLUTE MONOCYTE [2]: 36 CELLS/uL
- ABSOLUTE SEGMENTED NEUTROPHIL [2]: 287.33 CELLS/uL
- BASOPHIL [2]: 0%
- EOSINOPHIL [2]: 0%
- ERYTHROCYTE COUNT [2]: 5.55 x10E6/uL
- HEMATOCRIT [2]: 34.6%
- LEUKOCYTE COUNT [2]: 10.7 x10E3/uL
- LYMPHOCYTE [2]: 97%
- MEAN CORPUSCULAR HEMOGLOBIN [2]: 24.17 pg
- MEAN CORPUSCULAR HEMOGLOBIN CONCENTRATION [2]: 38.73 G/DL
- MONOCYTE [2]: 0.33%
- NEUTROPHIL [2]: 2.67%
- NUCLEATED RED BLOOD CELLS [2]: 0.33 /100WBC
- PLATELET COUNT [2]: 1189.33 x10E3/uL
- ALANINE AMINOTRANSFERASE [3]: 46 u/L
- ALKALINE PHOSPHATASE [3]: 366 u/L
- ASPARTATE AMINOTRANSFERASE [3]: 90.67 u/L
- CARBON DIOXIDE [3]: 29 mmol/L
- CHOLESTEROL [3]: 74.67 mg/dL
- CREATINE PHOSPHOKINASE [3]: 348 u/L
- CREATININE [3]: 0.38 mg/dL
- GLUCOSE [3]: 158.33 mg/dL
- LACTATE DEHYDROGENASE [3]: 130.67 u/L
- LIPASE [3]: 9 u/L
- PHOSPHORUS [3]: 10.43 mg/dL
- POTASSIUM [3]: 5.45 MEQ/L
- TOTAL BILIRUBIN [3]: 0.17 mg/dL
- TOTAL PROTEIN [3]: 6.07 G/DL
- URIC ACID [3]: 0.87 mg/dL
- ABSOLUTE BASOPHIL [4]: 0 CELLS/uL
- ABSOLUTE EOSINOPHIL [4]: 14 CELLS/uL
- ABSOLUTE LYMPHOCYTE [4]: 7854 CELLS/uL
- ABSOLUTE MONOCYTE [4]: 121.33 CELLS/uL
- ABSOLUTE SEGMENTED NEUTROPHIL [4]: 410.67 CELLS/uL
- BASOPHIL [4]: 0%
- EOSINOPHIL [4]: 0.33%
- ERYTHROCYTE COUNT [4]: 6.2 x10E6/uL
- HEMATOCRIT [4]: 38.03%
- HEMOGLOBIN [4]: 15.03 G/DL
- LEUKOCYTE COUNT [4]: 8.4 x10E3/uL
- LYMPHOCYTE [4]: 94%
- MEAN CORPUSCULAR HEMOGLOBIN [4]: 24.43 pg
- MEAN CORPUSCULAR HEMOGLOBIN CONCENTRATION [4]: 39.67 G/DL
- NEUTROPHIL [4]: 4%
- NUCLEATED RED BLOOD CELLS [4]: 1 /100WBC
- PLATELET COUNT [4]: 574 x10E3/uL
- ALANINE AMINOTRANSFERASE [5]: 46.67 u/L
- ALBUMIN [5]: 4.5 G/DL
- ALKALINE PHOSPHATASE [5]: 398.67 u/L
- ASPARTATE AMINOTRANSFERASE [5]: 94.33 u/L
- BLOOD UREA NITROGEN [5]: 15.67 mg/dL
- CARBON DIOXIDE [5]: 29.33 mmol/L
- CHLORIDE [5]: 97 MEQ/L
- CHOLESTEROL [5]: 78.33 mg/dL
- CREATINE PHOSPHOKINASE [5]: 381 u/L
- CREATININE [5]: 0.22 mg/dL
- GLUCOSE [5]: 145.33 mg/dL
- LACTATE DEHYDROGENASE [5]: 168.33 u/L
- LIPASE [5]: 11 u/L
- POTASSIUM [5]: 6.3 MEQ/L
- TOTAL BILIRUBIN [5]: 0.23 mg/dL
- TOTAL PROTEIN [5]: 6.6 G/DL
- URIC ACID [5]: 1.1 mg/dL
- ABSOLUTE BASOPHIL [6]: 0 CELLS/uL
- ABSOLUTE EOSINOPHIL [6]: 0 CELLS/uL
- ABSOLUTE LYMPHOCYTE [6]: 7567 CELLS/uL
- ABSOLUTE MONOCYTE [6]: 38.67 CELLS/uL
- ABSOLUTE SEGMENTED NEUTROPHIL [6]: 427.67 CELLS/uL
- BASOPHIL [6]: 0%
- EOSINOPHIL [6]: 0%
- ERYTHROCYTE COUNT [6]: 5.69 x10E6/uL
- HEMATOCRIT [6]: 34.77%
- HEMOGLOBIN [6]: 13.5 G/DL
- LEUKOCYTE COUNT [6]: 8.03 x10E3/uL
- LYMPHOCYTE [6]: 94.33%
- MEAN CORPUSCULAR HEMOGLOBIN CONCENTRATION [6]: 38.83 G/DL
- MONOCYTE [6]: 0.33%
- NEUTROPHIL [6]: 5.33%
- NUCLEATED RED BLOOD CELLS [6]: 0.33 /100WBC
- PLATELET COUNT [6]: 1070.33 x10E3/uL
- ALANINE AMINOTRANSFERASE [7]: 54 u/L
- ALKALINE PHOSPHATASE [7]: 340 u/L
- ASPARTATE AMINOTRANSFERASE [7]: 84.33 u/L
- BLOOD UREA NITROGEN [7]: 18 mg/dL
- CARBON DIOXIDE [7]: 28 mmol/L
- CHOLESTEROL [7]: 71.67 mg/dL
- CREATINE PHOSPHOKINASE [7]: 378.67 u/L
- CREATININE [7]: 0.28 mg/dL
- GLUCOSE [7]: 151.67 mg/dL
- LACTATE DEHYDROGENASE [7]: 133 u/L
- LIPASE [7]: 11.67 u/L
- PHOSPHORUS [7]: 10.93 mg/dL
- POTASSIUM [7]: 4.99 MEQ/L
- TOTAL BILIRUBIN [7]: 0.17 mg/dL
- TOTAL PROTEIN [7]: 6.07 G/DL
- URIC ACID [7]: 0.83 mg/dL
